# Measured values: patent US12662490B2, “Heterocyclic compounds” (Hoffmann-La Roche Inc., priority 2019, dated 2026)
# Target: T1, MAGL (Homo sapiens, UniProt Q99685)
# T1 sequence (Q99685 1-303): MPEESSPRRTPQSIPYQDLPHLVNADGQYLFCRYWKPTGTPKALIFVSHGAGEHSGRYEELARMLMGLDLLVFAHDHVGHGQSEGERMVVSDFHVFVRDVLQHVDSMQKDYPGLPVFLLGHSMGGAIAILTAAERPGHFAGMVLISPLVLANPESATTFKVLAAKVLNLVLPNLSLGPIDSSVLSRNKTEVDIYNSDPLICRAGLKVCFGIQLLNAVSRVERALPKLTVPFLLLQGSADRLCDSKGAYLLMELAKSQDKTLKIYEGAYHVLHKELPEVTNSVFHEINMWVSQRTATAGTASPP
# Experiment: 2-AG assay (MAGL inhibitory activity; hydrolysis of 2-arachidonoylglycerol to arachidonic acid followed by mass spectrometry)
# Assay type: biochemical
# Details: 15 min preincubation at RT, 8 μM 2-arachidonoylglycerol, 30 min at RT, RapidFire MS readout
# Experimental: Compounds were profiled for MAGL inhibitory activity by determining the enzymatic activity by following the hydrolysis of the natural substrate 2-arachidonoylglycerol (2-AG) resulting in arachidonic acid, which can be followed by mass spectrometry. This assay is hereinafter abbreviated “2-AG assay”.
# The 2-AG assay was carried out in 384 well assay plates (PP, Greiner Cat #784201) in a total volume of 20 μL. Compound dilutions were made in […] (VWR Chemicals 23500.297) in a polypropylene plate in 3-fold dilution steps to give a final concentration range in the assay from 12.5 μM to […]. 0.25 μL compound dilutions (100% DMSO) were added to 9 μL MAGL in assay buffer (50 mM TRIS (GIBCO, 15567-027), 1 mM EDTA (Fluka, 03690-100 mL), 0.010 (v/v) Tween. After shaking, the plate was incubated for 15 min at RT. To start the reaction, 10 μL 2-arachidonoylglycerol in assay buffer was added. The final concentrations in the assay was […] and 8 μM 2-arachidonoylglyerol. After shaking and 30 min incubation at RT, the reaction was quenched by the addition of 40 μL of ACN containing 4 μM of d8-arachidonic acid. The amount of arachidonic acid was traced by an online SPE system (Agilent Rapidfire) coupled to a triple quadrupole mass spectrometer (Agilent 6460). A C18 SPE cartridge (G9205A) was used in an ACN/water liquid setup. The mass spectrometer was operated in negative electrospray mode following the mass transitions 303.1→259.1 for arachidonic acid and 311.1→267.0 for d8-arachidonic acid. The activity of the compounds was calculated based on the ratio of intensities [arachidonic acid/d8-arachidonic acid].
row,Compound,IC50
1,"COc1cccc(C(=O)N2CCN3C[C@H](c4sc(C)nc4C)OC[C@H]3C2)c1Cl (single isomer, unassigned) [Example 52]",1380 nM
2,"O=C(c1cccc(OC(F)(F)F)c1F)N1CCN2C[C@@H](c3ccc(F)c(Cl)c3)OC[C@@H]2C1 [Example 21, [(3R,9aS)-3-(3-chloro-4-fluoro-phenyl)-3,4,6,7,9,9a-hexahydro-1H-pyrazino[2,1-c][1,4]oxazin-8-yl]-[2-fluoro-3-(trifluoromethoxy)phenyl]methanone]",746 nM
3,"O=C(c1cccc(-c2c[nH]ncc2=O)c1Cl)N1CCN2C[C@@H](c3ccc(F)c(Cl)c3)OC[C@@H]2C1 [Example 158, 5-[3-[(3R,9aS)-3-(3-chloro-4-fluoro-phenyl)-3,4,6,7,9,9a-hexahydro-1H-pyrazino[2,1-c][1,4]oxazine-8-carbonyl]-2-chloro-phenyl]-1H-pyridazin-4-one]",1020 nM
4,"COc1cccc(C(=O)N2CCN3C[C@@H](c4ccc(Br)cn4)OC[C@H]3C2)c1Cl (racemic) [Example 54, (2-chloro-3-methoxy-phenyl)-[rac-(3S,9aR)-3-(5-bromo-2-pyridyl)-3,4,6,7,9,9a-hexahydro-1H-pyrazino[2,1-c][1,4]oxazin-8-yl]methanone]",975 nM
5,"O=C(c1cccc(-c2cn[nH]c2C(F)(F)F)c1F)N1CCN2C[C@@H](c3ccc(F)c(Cl)c3)OC[C@@H]2C1 [Example 102, [(3R,9aS)-3-(3-chloro-4-fluoro-phenyl)-3,4,6,7,9,9a-hexahydro-1H-pyrazino[2,1-c][1,4]oxazin-8-yl]-[2-fluoro-3-[5-(trifluoromethyl)-1H-pyrazol-4-yl]phenyl]methanone]",20.7 nM
6,"O=C(c1cccc(-c2c[nH]nc2F)c1Cl)N1CCN2C[C@@](F)(c3ccc(C(F)(F)F)nc3)OC[C@@H]2C1 [Example 88, [2-chloro-3-(3-fluoro-1H-pyrazol-4-yl)phenyl]-[(3S,9aS)-3-fluoro-3-[6-(trifluoromethyl)-3-pyridyl]-1,4,6,7,9,9a-hexahydropyrazino[2,1-c][1,4]oxazin-8-yl]methanone]",10.7 nM
7,"O=C(c1cccc(N2CCOCC2)c1Cl)N1CCN2C[C@@H](c3ccc(F)c(Cl)c3)OC[C@@H]2C1 [Example 43, [(3R,9aS)-3-(3-chloro-4-fluoro-phenyl)-3,4,6,7,9,9a-hexahydro-1H-pyrazino[2,1-c][1,4]oxazin-8-yl]-(2-chloro-3-morpholino-phenyl)methanone]",120 nM
8,"Cc1n[nH]c2ccc(C(=O)N3CCN4C[C@@H](c5ccc(F)c(Cl)c5)OC[C@@H]4C3)c(Cl)c12 [Example 41, [(3R,9aS)-3-(3-chloro-4-fluoro-phenyl)-3,4,6,7,9,9a-hexahydro-1H-pyrazino[2,1-c][1,4]oxazin-8-yl]-(4-chloro-3-methyl-1H-indazol-5-yl)methanone]",63.8 nM
9,"COc1cccc(C(=O)N2CCN3C[C@@H](c4cc(C(F)F)c(Cl)cn4)OC[C@@H]3C2)c1Cl [Example 104, (2-chloro-3-methoxy-phenyl)-[(3S,9aS)-3-[5-chloro-4-(difluoromethyl)-2-pyridyl]-3,4,6,7,9,9a-hexahydro-1H-pyrazino[2,1-c][1,4]oxazin-8-yl]methanone]",89.5 nM
10,"COc1cccc(C(=O)N2CCN3C[C@@H](c4ccc(-c5cnco5)c(Cl)c4)OC[C@@H]3C2)c1Cl [Example 137, [(3R,9aS)-3-(3-chloro-4-oxazol-5-yl-phenyl)-3,4,6,7,9,9a-hexahydro-1H-pyrazino[2,1-c][1,4]oxazin-8-yl]-(2-chloro-3-methoxy-phenyl)methanone]",182 nM
11,"COc1cccc(C(=O)N2CCN3C[C@@H](c4ccc(F)c(-c5ccccc5)c4)OC[C@@H]3C2)c1Cl [Example 11, [(3R,9aS)-3-(4-fluoro-3-phenyl-phenyl)-3,4,6,7,9,9a-hexahydro-1H-pyrazino[2,1-c][1,4]oxazin-8-yl]-(2-chloro-3-methoxy-phenyl)methanone]",259 nM
12,"O=C(c1cccc(-c2c[nH]nc2F)c1Cl)N1CCN2C[C@H](c3ccc(F)c(Cl)c3)OC[C@@H]2C1 [Example 50, [(3S,9aS)-3-(3-chloro-4-fluoro-phenyl)-3,4,6,7,9,9a-hexahydro-1H-pyrazino[2,1-c][1,4]oxazin-8-yl]-[2-chloro-3-(3-fluoro-1H-pyrazol-4-yl)phenyl]methanone]",418 nM
13,"N#Cc1cc(-c2cc(F)cc(C(=O)N3CCN4C[C@@H](c5ccc(C(F)(F)F)[nH]c5=O)OC[C@@H]4C3)c2Cl)c[nH]1 [Example 112, 4-[3-[(3R,9aS)-3-[2-oxo-6-(trifluoromethyl)-1H-pyridin-3-yl]-3,4,6,7,9,9a-hexahydro-1H-pyrazino[2,1-c][1,4]oxazine-8-carbonyl]-2-chloro-5-fluoro-phenyl]-1H-pyrrole-2-carbonitrile]",6.5 nM
14,"O=C(c1cccc(N2CC(O)C2)c1Cl)N1CCN2C[C@@H](c3ccc(F)c(Cl)c3)OC[C@@H]2C1 [Example 108, [(3R,9aS)-3-(3-chloro-4-fluoro-phenyl)-3,4,6,7,9,9a-hexahydro-1H-pyrazino[2,1-c][1,4]oxazin-8-yl]-[2-chloro-3-(3-hydroxyazetidin-1-yl)phenyl]methanone]",10.5 nM

# Next, values leading:
row,IC50,Compound
1,18.3 nM,"COc1cccc(C(=O)N2CCN3C[C@@H](c4ccc(F)c(Cl)c4)OC[C@@H]3C2)c1Cl [Example 1, [(3R,9aS)-3-(3-chloro-4-fluoro-phenyl)-3,4,6,7,9,9a-hexahydro-1H-pyrazino[2,1-c][1,4]oxazin-8-yl]-(2-chloro-3-methoxy-phenyl)methanone]"
2,34.7 nM,"COc1cccc(C(=O)N2CCN3C[C@@](O)(c4ccc(C(F)(F)F)cc4)OC[C@@H]3C2)c1Cl [Example 119, [(3R,9aS)-3-hydroxy-3-[4-(trifluoromethyl)phenyl]-1,4,6,7,9,9a-hexahydropyrazino[2,1-c][1,4]oxazin-8-yl]-(2-chloro-3-methoxy-phenyl)methanone]"
3,3.1 nM,"COc1cccc(C(=O)N2CCN3CC(c4ccc(F)c(Cl)c4)SC[C@@H]3C2)c1Cl (single isomer, unassigned) [Example 161]"
4,426 nM,"COc1cccc(C(=O)N2CCN3C[C@@H](c4ccc(Cl)c(C(F)(F)F)n4)OC[C@@H]3C2)c1Cl [Example 148, [(3S,9aS)-3-[5-chloro-6-(trifluoromethyl)-2-pyridyl]-3,4,6,7,9,9a-hexahydro-1H-pyrazino[2,1-c][1,4]oxazin-8-yl]-(2-chloro-3-methoxy-phenyl)methanone]"
5,254 nM,"COc1cccc(C(=O)N2CCN3C[C@@](O)(c4csc(-c5ccc(F)cc5)n4)OC[C@@H]3C2)c1Cl [Example 139, [(3S,9aS)-3-[2-(4-fluorophenyl)thiazol-4-yl]-3-hydroxy-1,4,6,7,9,9a-hexahydropyrazino[2,1-c][1,4]oxazin-8-yl]-(2-chloro-3-methoxy-phenyl)methanone]"
6,12.6 nM,"COc1cccc(C(=O)N2CCN3C[C@@H](c4cc(Br)c(Cl)cn4)OC[C@@H]3C2)c1Cl [Example 107, (2-chloro-3-methoxy-phenyl)-[(3S,9aS)-3-[5-chloro-4-bromo-2-pyridyl]-3,4,6,7,9,9a-hexahydro-1H-pyrazino[2,1-c][1,4]oxazin-8-yl]methanone]"
7,348 nM,"COc1cccc(C(=O)N2CCN3C[C@@](O)(c4cc(-c5ccccc5)no4)OC[C@@H]3C2)c1Cl [Example 143, [(3S,9aS)-3-hydroxy-3-(3-phenylisoxazol-5-yl)-1,4,6,7,9,9a-hexahydropyrazino[2,1-c][1,4]oxazin-8-yl]-(2-chloro-3-methoxy-phenyl)methanone]"
8,19.4 nM,"COc1cccc(C(=O)N2CCN3C[C@@](O)(c4ccc(F)c(Cl)c4)OC[C@@H]3C2)c1Cl [Example 45, [(3R,9aS)-3-(3-chloro-4-fluoro-phenyl)-3-hydroxy-1,4,6,7,9,9a-hexahydropyrazino[2,1-c][1,4]oxazin-8-yl]-(2-chloro-3-methoxy-phenyl)methanone]"
9,1600 nM,"COc1ccc(-c2nc([C@]3(O)CN4CCN(C(=O)c5cccc(OC)c5Cl)C[C@H]4CO3)cs2)cn1 [Example 160, [(3S,9aS)-3-hydroxy-3-[2-(6-methoxy-3-pyridyl)thiazol-4-yl]-1,4,6,7,9,9a-hexahydropyrazino[2,1-c][1,4]oxazin-8-yl]-(2-chloro-3-methoxy-phenyl)methanone]"
10,1.6 nM,"N#Cc1cc(-c2cccc(C(=O)N3CCN4C[C@@](O)(c5ccc(F)c(Cl)c5)OC[C@@H]4C3)c2Cl)c[nH]1 [Example 109, 4-[3-[(3R,9aS)-3-(3-chloro-4-fluoro-phenyl)-3-hydroxy-1,4,6,7,9,9a-hexahydropyrazino[2,1-c][1,4]oxazine-8-carbonyl]-2-chloro-phenyl]-1H-pyrrole-2-carbonitrile]"
